The test system of assay [1] is Human erythrocytes. As to the kind of experiment: Osmotic fragility test. Conditions: 5 mM DTBP. In kind it is cell-based. The protocol:
An osmotic fragility test (a common clinical test) was performed on erythrocytes cross-linked with 5 mM DTBP for different incubation times and on erythrocytes cross-linked and reversed with DTT. Briefly, 1 ml of the erythrocyte suspension was taken out at regular incubation times, centrifuged, and DTBP or DTT was removed (Eppendorf centrifuge for 3 min at 3000×g). 1 ml of solutions containing buffered sodium sodium chloride at different concentrations (from 1% to 0.1% NaCl in phosphate buffer) were added to the packed cells. After 30 min the samples were centrifugated (Eppendorf centrifuge for 3 min at 3000×g), and the supernatants were processed for hemolysis measurements.

In assay [2] the test system is Human erythrocytes. The assay is described as follows: cells. Format: cell-based. The method, then:
Packed human erythrocytes from healthy donors were obtained from the National Naval Medical Center (Bethesda, Md.) within 48 h of donation and used within 7 days. Packed erythrocytes were washed twice in phosphate buffer solution (PBS) then re-suspended in PBS (1 vol PBS:1 vol packed cells). The erythrocyte suspension (100 ml) was placed on ice and carbon monoxide (CO) was bubbled through it for 2 hours. Saturation with CO (100%) was achieved under these conditions as detected with a CO-oximeter. Erythrocytes were packed and cross-linked with DTBP at 4° C. for different incubation times (from 1 to 24 h; 9 vol cross-linking solution: 1 vol packed cells). The cross-linking solution was prepared by dissolving DTBP in PBS (pH 7.8). After incubation DTBP was removed by repeated washing of the red cells in PBS (IEC Centra centrifuge for 10 min at 1008×g). Reversal of the cross-linking was carried out at room temperature with the reducing agent dithioerythritol (DTT) at a concentration of 10 mM in PBS (9 vol reducing solution: 1 vol packed cells) for 20 min or as indicated in the figure legends. DTT was removed by repeated washing of the red cells in PBS (IEC Centra centrifuge for 10 min at 1008×g). CO-treatment was reversed at room temperature using a hollow fiber membrane oxygenator model Capiox 308. Erythrocytes were processed through the oxygenator for 1 h. Saturation with oxygen (92%) was reached as detected with a CO-oximeter.
Erythrocytes were cross-linked with DTBP at different concentrations for different incubation times. 1 ml of the erythrocyte suspension was taken out at regular incubation times centrifuged and DTBP was removed (Eppendorf centrifuge for 3 min at 3000×g). Distilled water (1 ml) was added to the remaining packed cells. After 30 min the cells were again centrifugated (Eppendorf centrifuge for 3 min at 3000×g), and the supernatants were processed for hemolysis measurements. For determination of hemolysis the cyanmethemoglobin method was applied (see Brown in “Hematology: principles and procedures” pp. 29-31 (Lea and Febiger, eds., 1984)). Absorbance was measured at 540 nm and percent hemolysis was determined by Equation (1), supra, where the control sample was lysed in distilled water.
Erythrocyte stability in distilled water was tested after crosslinking reversal as well. Red blood cells were first cross-linked with DTBP then treated with DTT at different concentrations (from 1 to 10 mM) for different incubation times (from 5 to 20 min). Hemolysis in distilled water was measured as described above.

Another assay relates to Red cells. As to the kind of experiment: Oxygen carrying ability (oxygen content by CO-oximeter). Format: cell-based, human. The following applies: CO-treated. The protocol:
A semi-quantitative measure of oxygen carrying ability by DTBP cross-linked and reversed cells was performed. Red cells cross linked with 5 mM DTBP for different incubation times and cells reversed with DTT (see above) were processed through a membrane oxygenator to replace CO with oxygen. Oxygen saturation of the cells was measured using a CO-oximeter. After the oxygenation, cells were subjected to deoxygenation under a stream of nitrogen for 30 min. Percentage oxygen was measured again by the CO-oximeter. Oxygen binding and releasing properties for cross-linked, reversed and normal cells were compared.
We measured oxygen content (Vol%O2) of cells subjected to cross-linking and reversal with a CO-oximeter 282. […] CO-treated and cross-linked cells with 5 mM DTBP for 5 h, which underwent re-oxygenation in the membrane oxygenator had oxygen content of 7.3 Vol%O2.

[3] abbreviates: Homo sapiens, Erythrocyte, 4 h, read-out: hemolysis in distilled water.

Like-named read-outs stand apart in the source and are kept apart here.

Take `COC(=N)CCSSCCC(=N)OC` [DTBP, Dimethyl-3,3′-dithiobispropionimidate]: the “NaCl concentration at which hemolysis started” value in the assay on Human erythrocytes [1] (1 h cross-linked cells) is reported as 0.4 % NaCl; in the assay with Human erythrocytes [1] (3 h cross-linked cells) it was 0.30 % NaCl. The “NaCl concentration at which total lysis was first measured” value in the assay with Human erythrocytes [1] (1 h cross-linked cells) came to 0.1 % NaCl; in the assay on Human erythrocytes [1] (3 h cross-linked cells), 0.0 % NaCl. Also, the “hemolysis in distilled water” value with Human erythrocytes [2] (1 or 3 mM DTBP, even after prolonged incubation times) was “did not produce cells stable to hemolysis in distilled water”. Moreover, the hemolysis at 5000 µM in the assay with Human erythrocytes [2] (Homo sapiens, Erythrocyte, 3 h, read-out: hemolysis in distilled water) is 100%; with Human erythrocytes [2] (setting [3]), 88%; in the assay with Human erythrocytes [2] (Homo sapiens, Erythrocyte, 5 h, read-out: hemolysis in distilled water) it was 67%; in the assay with Human erythrocytes [2] (Homo sapiens, Erythrocyte, 7 h, read-out: hemolysis after the treatment with DTT), 35%; with Human erythrocytes [2] (Homo sapiens, Erythrocyte, 7 h, read-out: hemolysis in distilled water), 45%; in the assay on Human erythrocytes [2] (Homo sapiens, Erythrocyte, 24 h, read-out: hemolysis after the treatment with DTT), 100%. Also, the hemolysis at 5000 µM in the assay with Human erythrocytes [2] (Homo sapiens, Erythrocyte, 24 h, read-out: hemolysis in distilled water) turned out to be 10%. Besides, the hemolysis at 7000 µM with Human erythrocytes [2] (setting [3]) was 21%. Moreover, the hemolysis at 10000 µM in the assay on Human erythrocytes [2] (setting [3]) is 0%. The “stability in the presence of the reducing agent (DTT)” value in the assay on Human erythrocytes [2] (cells with lower degree of stabilization (5 mM DTBP 5 h, 67% lysis in water)) was “stable in the presence of the reducing agent”. Moreover, the oxygen content was found to be 2.9 Vol%O2 in the assay with Red cells (5 mM DTBP 5 h, re-oxygenated then deoxygenated with nitrogen) and 7.3 Vol%O2 with Red cells (5 mM DTBP for 5 h, re-oxygenated in membrane oxygenator).

Values taken from patent US6436705B1, “Shape stabilized erythrocytes” (The United States of America as represented by the …, priority 1997, dated 2002).
